Results from patent US10918645B2 (LIFEARC, priority 2016, dated 2021).

Tests used:
Assay type in all cases: biochemical
Conditions in all cases: 1 μM inhibitor concentration
MKK1 = MKK1 (Homo sapiens (Human), UniProt Q02750); experiment: MKK1 kinase selectivity assay
Procedure: After incubating at room temperature for 30 min, 5 μl from the first reaction is pipetted into 20 μl of the second reaction mix containing (final concentration) 25 mM Tris pH 7.5, 0.1 mM EGTA, 0.1 mM Na3VO4, 0.66 mg/ml myelin basic protein (MBP), 10 mM magnesium acetate and 0.05 mM [33P-g-ATP] (500-1000 cpm/pmole) and incubated for 30 min at room temperature. Assays are stopped by addition of 5 μl of 0.5 M (3%) orthophosphoric acid and then harvested onto P81 Unifilter plates with a wash buffer of 50 mM orthophosphoric acid.

ERK2 = ERK2 (Homo sapiens (Human), UniProt P28482); experiment: ERK2 kinase selectivity assay
Procedure: MAPK/ERK2 (5-20 mU diluted in 50 mM Tris pH 7.5, 0.1 mM EGTA, 0.1 mM Na3VO4, 0.1% b-mercaptoethanol, 1 mg/ml BSA) is assayed against MBP in a final volume of 25.5 μl in 25 mM Tris pH 7.5, 0.1 mM EGTA, 0.33 mg/ml MBP, 10 mM magnesium acetate and 0.05 mM [33P-g-ATP](500-1000 cpm/pmole) and incubated for 30 min at room temperature. Assays are stopped by addition of 5 μl of 0.5 M (3%) orthophosphoric acid and then harvested onto P81 Unifilter plates with a wash buffer of 50 mM orthophosphoric acid.

RSK2 = RSK2 (Homo sapiens (Human), UniProt P51812); experiment: RSK2 kinase selectivity assay
Procedure: MAPKAP-K1b (5-20 mU diluted in 20 mM MOPS pH 7.5, 1 mM EDTA, 0.01% Brij35, 5% glycerol, 0.1% b-mercaptoethanol, 1 mg/ml BSA) is assayed against substrate peptide ([…]) in a final volume of […] containing 50 mM Na-b-glycerophosphate (pH 7.5), 0.5 mM EDTA, 30 μM substrate peptide, 10 mM magnesium acetate and 0.05 mM [33P-g-ATP] (50-1000 cpm/pmole) and incubated for 30 min at room temperature. Assays are stopped by addition of 5 μl of 0.5 M (3%) orthophosphoric acid and then harvested onto P81 Unifilter plates with a wash buffer of 50 mM orthophosphoric acid.

MSK1 = MSK1 (Homo sapiens (Human), UniProt O75582); experiment: MSK1 kinase selectivity assay
Procedure: MSK1 (5-20 mU diluted in 20 mM MOPS pH 7.5, 1 mM EDTA, 0.01% Brij35, 0.1% b-mercaptoethanol, 1 mg/ml BSA) is assayed against a modified Crosstide peptide […] in a final volume of 25.5 μl containing 8 mM MOPS pH7.0, 0.2 mM EDTA, 30 μM substrate peptide, 10 mM magnesium acetate and 0.02 mM [33P-g-ATP](50-1000 cpm/pmole) and incubated for 30 min at room temperature Assays are stopped by addition of 5 μl of 0.5 M (3%) orthophosphoric acid and then harvested onto P81 Unifilter plates with a wash buffer of 50 mM orthophosphoric acid.

CK2 = CK2 kinase selectivity assay
Procedure: CK2 (5-20 mU diluted in 20 mM Hepes pH7.5, 0.15 M NaCl, 0.1 mM EGTA, 0.1% Triton X-100, 5 mM DTT, 50% glycerol) is assayed against CKII peptide ([…]) in a final volume of 25.5 μl containing 20 mM Hepes pH 7.5, 0.15 M NaCl, 0.1 mM EDTA, 5 mM DTT, 0.1% Triton-X 100, CKII peptide (0.165 mM), 10 mM magnesium acetate and 0.005 mM [33P-g-ATP](500-1000 cpm/pmole) and incubated for 30 min at room temperature. Assays are stopped by addition of 5 μl of 0.5 M (3%) orthophosphoric acid and then harvested onto P81 Unifilter plates with a wash buffer of 50 mM orthophosphoric acid.

Src = Src (Homo sapiens (Human), UniProt P12931); experiment: Src kinase selectivity assay
Procedure: Src (5-20 mU diluted in 50 mM Tris pH 7.5, 0.1 mM EGTA, 0.1% b-mercaptoethanol, 1 mg/ml BSA) is assayed against a substrate peptide ([…]) in a final volume of 25.5 μl containing 50 mM Tris pH 7.5, 0.05% b-mercaptoethanol, 300 μM substrate peptide, 10 mM magnesium acetate and 0.05 mM [33P-g-ATP] (50-1000 cpm/pmole) and incubated for 30 min at room temperature. Assays are stopped by addition of 5 μl of 0.5 M (3%) orthophosphoric acid and then harvested onto P81 Unifilter plates with a wash buffer of 50 mM orthophosphoric acid.

SYK = SYK (Homo sapiens (Human), UniProt P43405); experiment: SYK kinase selectivity assay
Procedure: (§1) SYK (5-20 mU diluted in 50 mM Tris pH 7.5, 0.1 mM EGTA, 1 mg/ml BSA) is assayed against a substrate peptide (Poly Glut Tyr) in a final volume of 25.5 μl containing 50 mM Tris pH 7.5, 1 mg/ml substrate peptide, 10 mM magnesium acetate and 0.02 mM [33P-g-ATP] (50-1000 cpm/pmole) and incubated for 30 min at room temperature. Assays are stopped by addition of 5 μl of 0.5 M (3%) orthophosphoric acid and then harvested onto P81 Unifilter plates with a wash buffer of 50 mM orthophosphoric acid.

EPH-B3 = EPH-B3 (Homo sapiens (Human), UniProt P54753); experiment: EPH-B3 kinase selectivity assay
Procedure: as §1, with “EPH-B3” for “SYK”, “0.005” for “0.02”

IR = IR (Homo sapiens (Human), UniProt P06213); experiment: IR kinase selectivity assay
Procedure: as §1, with “IR-HIS (5-20” for “SYK (5-20”, “peptide ([…])” for “peptide (Poly Glut Tyr)”, “7.5, 300 µM” for “7.5, 1 mg/ml”

Chain of EPH-B3 (P54753 34-998, species assumed): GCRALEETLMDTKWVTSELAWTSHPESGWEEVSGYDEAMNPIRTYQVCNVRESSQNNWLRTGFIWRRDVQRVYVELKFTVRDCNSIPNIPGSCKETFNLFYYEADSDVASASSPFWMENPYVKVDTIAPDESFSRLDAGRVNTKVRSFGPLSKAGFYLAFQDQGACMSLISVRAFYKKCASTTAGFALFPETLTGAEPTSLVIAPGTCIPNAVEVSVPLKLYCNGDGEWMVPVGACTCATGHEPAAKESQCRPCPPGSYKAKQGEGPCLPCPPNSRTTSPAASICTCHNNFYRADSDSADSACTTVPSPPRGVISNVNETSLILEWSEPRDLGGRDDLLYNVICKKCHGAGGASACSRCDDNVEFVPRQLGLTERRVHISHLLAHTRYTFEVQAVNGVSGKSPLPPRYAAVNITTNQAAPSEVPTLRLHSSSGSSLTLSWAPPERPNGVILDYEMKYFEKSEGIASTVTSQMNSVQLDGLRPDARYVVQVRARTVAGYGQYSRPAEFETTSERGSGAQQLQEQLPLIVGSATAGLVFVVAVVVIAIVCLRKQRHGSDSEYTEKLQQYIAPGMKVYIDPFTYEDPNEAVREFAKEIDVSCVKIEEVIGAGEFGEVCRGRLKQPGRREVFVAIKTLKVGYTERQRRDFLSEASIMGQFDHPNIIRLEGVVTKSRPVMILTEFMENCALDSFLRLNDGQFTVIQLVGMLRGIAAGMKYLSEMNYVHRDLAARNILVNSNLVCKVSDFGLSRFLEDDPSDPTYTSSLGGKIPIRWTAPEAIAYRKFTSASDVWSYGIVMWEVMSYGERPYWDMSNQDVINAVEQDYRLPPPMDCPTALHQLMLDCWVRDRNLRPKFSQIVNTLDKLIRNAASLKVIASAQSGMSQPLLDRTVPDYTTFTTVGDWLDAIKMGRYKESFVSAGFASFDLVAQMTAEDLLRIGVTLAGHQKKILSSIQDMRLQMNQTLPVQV
Chain of MKK1 (Q02750 whole entry, species assumed): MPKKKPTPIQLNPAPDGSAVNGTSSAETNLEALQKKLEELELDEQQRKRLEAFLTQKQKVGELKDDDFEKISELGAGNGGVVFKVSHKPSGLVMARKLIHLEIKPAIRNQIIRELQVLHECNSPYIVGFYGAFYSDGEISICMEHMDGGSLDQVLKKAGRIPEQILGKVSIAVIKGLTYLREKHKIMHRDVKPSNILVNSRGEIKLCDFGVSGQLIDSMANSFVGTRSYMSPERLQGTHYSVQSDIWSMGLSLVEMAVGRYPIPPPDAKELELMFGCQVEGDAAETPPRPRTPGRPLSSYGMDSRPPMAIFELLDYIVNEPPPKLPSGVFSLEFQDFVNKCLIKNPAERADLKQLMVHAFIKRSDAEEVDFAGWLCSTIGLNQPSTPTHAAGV
Chain of ERK2 (P28482 whole entry, species assumed): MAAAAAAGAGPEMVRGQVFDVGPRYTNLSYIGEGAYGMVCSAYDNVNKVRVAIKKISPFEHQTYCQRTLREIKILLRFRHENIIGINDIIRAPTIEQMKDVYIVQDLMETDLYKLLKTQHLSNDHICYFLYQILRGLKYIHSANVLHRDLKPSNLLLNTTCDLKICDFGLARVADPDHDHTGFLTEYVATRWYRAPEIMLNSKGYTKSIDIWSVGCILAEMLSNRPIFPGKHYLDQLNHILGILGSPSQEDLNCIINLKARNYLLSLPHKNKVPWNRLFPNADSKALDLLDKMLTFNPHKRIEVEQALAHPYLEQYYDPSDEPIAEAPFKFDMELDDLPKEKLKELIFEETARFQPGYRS
Chain of IR (P06213 28-1382): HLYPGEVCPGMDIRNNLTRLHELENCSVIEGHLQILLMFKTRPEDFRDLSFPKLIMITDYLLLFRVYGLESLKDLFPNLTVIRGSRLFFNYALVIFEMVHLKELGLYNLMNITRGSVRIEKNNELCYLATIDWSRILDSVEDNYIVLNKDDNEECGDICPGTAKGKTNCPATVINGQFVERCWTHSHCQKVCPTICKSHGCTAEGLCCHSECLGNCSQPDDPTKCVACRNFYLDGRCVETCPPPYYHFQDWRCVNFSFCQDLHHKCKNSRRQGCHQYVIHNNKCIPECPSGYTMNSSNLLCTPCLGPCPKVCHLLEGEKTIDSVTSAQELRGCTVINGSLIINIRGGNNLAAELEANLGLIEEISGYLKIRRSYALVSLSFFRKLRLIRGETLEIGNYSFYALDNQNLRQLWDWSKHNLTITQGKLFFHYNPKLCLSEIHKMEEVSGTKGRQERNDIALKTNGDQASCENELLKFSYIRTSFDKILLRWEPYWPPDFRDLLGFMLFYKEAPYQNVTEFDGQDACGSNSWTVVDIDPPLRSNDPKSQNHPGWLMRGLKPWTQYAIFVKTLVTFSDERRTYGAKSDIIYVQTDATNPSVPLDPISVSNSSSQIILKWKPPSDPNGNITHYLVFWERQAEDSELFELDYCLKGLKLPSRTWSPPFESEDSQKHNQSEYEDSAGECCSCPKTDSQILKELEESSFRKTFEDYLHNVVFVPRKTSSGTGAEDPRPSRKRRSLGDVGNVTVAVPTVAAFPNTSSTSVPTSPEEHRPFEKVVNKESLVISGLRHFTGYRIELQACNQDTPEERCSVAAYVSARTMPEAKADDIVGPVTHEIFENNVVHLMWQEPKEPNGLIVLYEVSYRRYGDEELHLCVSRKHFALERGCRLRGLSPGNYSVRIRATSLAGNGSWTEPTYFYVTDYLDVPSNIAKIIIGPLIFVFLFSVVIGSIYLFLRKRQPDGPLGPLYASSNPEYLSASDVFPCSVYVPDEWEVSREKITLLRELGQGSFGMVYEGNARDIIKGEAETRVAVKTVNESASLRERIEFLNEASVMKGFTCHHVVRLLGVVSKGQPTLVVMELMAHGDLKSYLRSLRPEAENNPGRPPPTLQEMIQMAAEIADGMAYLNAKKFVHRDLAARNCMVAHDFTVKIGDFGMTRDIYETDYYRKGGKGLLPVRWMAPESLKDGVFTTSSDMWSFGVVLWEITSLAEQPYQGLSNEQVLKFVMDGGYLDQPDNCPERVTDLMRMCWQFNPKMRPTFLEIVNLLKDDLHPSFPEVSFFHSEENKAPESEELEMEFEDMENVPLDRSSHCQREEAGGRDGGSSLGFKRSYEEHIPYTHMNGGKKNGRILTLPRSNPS
Chain of Src (P12931 whole entry, looked up, species assumed): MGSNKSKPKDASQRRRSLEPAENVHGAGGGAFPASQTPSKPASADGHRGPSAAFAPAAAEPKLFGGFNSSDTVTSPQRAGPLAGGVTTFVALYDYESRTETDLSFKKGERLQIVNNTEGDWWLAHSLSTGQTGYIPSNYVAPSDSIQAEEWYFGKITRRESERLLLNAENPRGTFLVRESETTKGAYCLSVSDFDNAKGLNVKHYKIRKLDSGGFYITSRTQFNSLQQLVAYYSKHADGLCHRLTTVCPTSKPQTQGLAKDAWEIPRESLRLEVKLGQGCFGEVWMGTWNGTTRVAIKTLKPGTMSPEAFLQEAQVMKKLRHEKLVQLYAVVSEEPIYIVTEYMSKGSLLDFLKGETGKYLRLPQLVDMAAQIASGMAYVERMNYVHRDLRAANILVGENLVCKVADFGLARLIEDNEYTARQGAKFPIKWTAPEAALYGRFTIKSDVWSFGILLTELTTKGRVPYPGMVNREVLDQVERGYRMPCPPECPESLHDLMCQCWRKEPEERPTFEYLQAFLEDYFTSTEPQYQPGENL
Chain of RSK2 (P51812 whole entry, species assumed): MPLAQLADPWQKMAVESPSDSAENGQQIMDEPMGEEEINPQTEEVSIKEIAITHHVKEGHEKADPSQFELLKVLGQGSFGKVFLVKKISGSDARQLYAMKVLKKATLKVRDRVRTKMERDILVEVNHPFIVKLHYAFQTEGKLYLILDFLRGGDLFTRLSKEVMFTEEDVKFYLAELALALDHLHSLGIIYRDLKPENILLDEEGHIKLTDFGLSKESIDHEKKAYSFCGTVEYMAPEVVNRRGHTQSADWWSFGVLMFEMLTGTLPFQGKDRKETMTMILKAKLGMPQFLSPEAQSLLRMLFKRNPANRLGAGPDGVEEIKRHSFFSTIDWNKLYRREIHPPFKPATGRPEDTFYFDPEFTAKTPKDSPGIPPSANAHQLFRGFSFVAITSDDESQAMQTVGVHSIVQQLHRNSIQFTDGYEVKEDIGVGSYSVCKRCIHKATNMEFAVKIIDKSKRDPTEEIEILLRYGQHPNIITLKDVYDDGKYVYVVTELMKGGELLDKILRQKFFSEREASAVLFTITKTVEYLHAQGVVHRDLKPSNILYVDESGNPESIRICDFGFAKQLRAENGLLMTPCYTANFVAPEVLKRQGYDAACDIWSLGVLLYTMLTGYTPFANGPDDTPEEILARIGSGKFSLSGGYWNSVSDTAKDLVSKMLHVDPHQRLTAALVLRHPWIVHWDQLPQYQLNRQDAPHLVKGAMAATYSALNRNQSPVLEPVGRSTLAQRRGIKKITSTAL

SMILES | percentage inhibition of MKK1 (MKK1) [percentage] | percentage inhibition of ERK2 (ERK2) [percentage] | percentage inhibition of RSK2 (RSK2) [percentage] | percentage inhibition of MSK1 (MSK1) [percentage] | percentage inhibition of CK2 (CK2) [percentage] | percentage inhibition of Src (Src) [percentage] | percentage inhibition of SYK (SYK) [percentage] | percentage inhibition of EPH-B3 (EPH-B3) [percentage] | percentage inhibition of IR (IR) [percentage]
c1cc2[nH]nc3c2c(n1)N(C1CCOCC1)CCC3 [Example 29, 6-(tetrahydro-2H-pyran-4-yl)-6,7,8,9-tetrahydro-2H-1,2,5,6-tetraazabenzo[cd]azulene] | 21 | 0 | 0 | 7 | 0 | 0 | 0 | 0 | 2
c1cc2[nH]nc3c2c(n1)N(C1CCC1)CCC3 [Example 22, 6-cyclobutyl-6,7,8,9-tetrahydro-2H-1,2,5,6-tetraazabenzo[cd]azulene] | 15 | 0 | 8 | 2 | 0 | 13 | 0 | 0 | 27
CN1CCC(N2Cc3ccccc3-c3n[nH]c4ccnc2c34)CC1 [Example 55] | 65 | 0 | 21 | 34 | 11 | 1 | 0 | 12 | 5
CC(C)n1ncc2c1CN(C1CCN(C)CC1)c1nccc3[nH]nc-2c13 [Example 68] | 31 | 11 | 54 | 30 | 4 | 0 | 1 | 5 | 0
c1cc2[nH]nc3c2c(n1)N(C1CCCC1)CCC3 [Example 23, 6-cyclopentyl-6,7,8,9-tetrahydro-2H-1,2,5,6-tetraazabenzo[cd]azulene] | 0 | 0 | 5 | 2 | – | 0 | 0 | 0 | 1
